In paper PMC11123961, “Design, Synthesis, and Biological Evaluation of the Quorum-Sensing Inhibitors of Pseudomonas aeruginosa PAO1” (Molecules, 2024):

Key:
[1] = Pharmacokinetics in male CD1 mice; type: in vivo
Protocol: Beijing Pharmaron Inc. carried out pharmacokinetic studies relating to compound Y-31 in mice. All of the animals were kept in a pathogen-free barrier animal facility, and the company’s Animal Care and Use Committee approved the experiments. On the day of administration, the sample solution was made into a 5, 20 mg/kg solution. Following a single dosage of compound Y-31 either intravenously (5 mg/kg, IV) or orally (20 mg/kg, PO) at 0.25, 0.5, 1, 2, 4, 6, 8, and 24 h post-administration, blood samples were taken from CD1 male mice (n = 3). After that, the plasma was centrifuged for […] at 4000 g and 4 °C to yield. The plasma was diluted 3 times with water. For quantitative analysis, a measurement of 2 µL of diluted supernatant was put into the LC/MS/MS apparatus. […] Phoenix WinNonlin 8.0 software was applied to calculate the pharmacokinetic parameters.

[2] = system: P. aeruginosa PAO1 elastase; assay: Elastase quantification (EnzCheck Elastase Assay Kit); type: cell-based, Pseudomonas aeruginosa
Protocol: The method previously described was used to perform the elastase quantification experiment. In LB medium, P. aeruginosa PAO1 was cultivated until the logarithmic growth phase at 37 °C and 150 rpm. […] Elastase activity was detected using the EnzCheckTM Elastase Assay Kit after filtration with a 0.22 μm filter membrane.

RAW 264.7 cells = assay: Cytotoxicity test, CCK8; type: cell-based, mouse; settings: 162.50, 81.25 and 40.00 μM, 12 h
Protocol: The cell line used in this study was mouse mononuclear macrophage leukemia cell RAW 264.7. The cells were cultured in DMEM complete medium (basal medium containing 10% fetal bovine serum, 100 U/mL penicillin, and […] streptomycin) at 37 °C in a 5% CO2 incubator. When the cells covered 80% of the bottom of the plate, they were passaged more than three times.
Adherent RAW 264.7 cells were digested to detach the cells. Digestion was stopped via the addition of PBS and centrifuging at 1000 rpm for 5 min. The supernatant was discarded, and the cells were resuspended in 1 mL of medium for cell counting. Based on the counting results, the cell suspension was diluted. Then, 100 μL of the diluted cell suspension was added to a 96-well plate, with approximately 1 × 10^4 cells per well. The cells were then placed in the incubator to allow for adherence.
One well without cells received 100 μL of complete medium as a blank control, and one well with cells received 100 μL of complete medium as a negative control. […]
After incubation, the medium was removed, and 100 μL of 10% CCK8 solution was added to each well. The absorbance at 450 nm (OD450) was measured at 0.5 h, 1 h, and 2 h until OD450 = 1.
Cell viability was calculated using the following formula: cell activity = (OD450 compound − OD450 blank)/(OD450 negative control − OD450 blank) x 100%

P. aeruginosa PAO1 = assay: Growth activity of PAO1 (OD600 growth curve); type: cell-based, Pseudomonas aeruginosa; settings: 162.50, 81.25 and 40.00 μM, OD600 over 24 h
Protocol: 3.2.4. The Growth of the Compound of PAO1 QS Activity Analysis
P. aeruginosa PAO1 in log phase was diluted to OD600 = 0.05 in fresh LB medium. Then, 98 μL of diluted bacterial solution and 2 μL of Y-31 solution were added to the 96-well plate. The final concentration of Y-31 in each well was 162.50 μM, 81.25 μM, and 40.00 μM, respectively. The pores without the compound Y-31 were used as blank controls. The cells were incubated in an incubator at 37 °C for 24 h, and OD600 was measured at 0 h, 2 h, 4 h, 6 h, 8 h, 10 h, 12 h, and 24 h, respectively.

[3] = system: wildtype Caenorhabditis elegans N2 infected with P. aeruginosa PAO1; assay: C. elegans survival assay; type: in vivo
Source text: 3.2.7. C. elegans Survival Assay
The negative control was the PGS agar plate coated with E. Coli OP50. Next, 50 wildtype C. elegans N2 strain-synchronized nematodes (L4 stage) were chosen and placed onto the plates. […] When the nematodes in the study were immobile, they were deemed dead. The number of nematodes that survived was tabulated to generate a survival curve.

C. violaceum CV026 QS = assay: Half-maximal inhibitory concentration against C. violaceum CV026 QS (suppression of violacein production); type: cell-based; settings: Chromobacterium violaceum; C6-HSL-induced violacein production, 12 h; mean ± SD of three independent tests; read-out: IC50, anti-CV026 QS activity
Source text: In the exploration of the QS inhibitions, C. violaceum CV026, a mini-T5 mutant of C. violaceum ATCC31532, is frequently employed as a biosensor strain. Because C. violaceum CV026 lacks the CviI gene, which directs the synthesis of AHLs, it is unable to manufacture violacein on its own. The violacein reaction can be induced in C. violaceum CV026 by adding exogenous C6-HSL [27]. As a result, the violacein reaction in C. violaceum CV026 can be used to assess the compounds’ suppression of QS, as used in this investigation.
3.2.2. The Half-Maximal Inhibitory Concentration (IC50) of Compounds against C. violaceum CV026 QS [36]
Subsequently, the log phase of C. violaceum CV026 was placed in a 12-well plate (2 mL/well) after being diluted 10-fold with fresh LB medium. The experimental group received 15 μL of the diluted inducer C6-HSL (0.125 mM), and 8 μL of each dilution gradient compound was added to each well, while the positive control group received 8 μL of C10-HSL, and the blank control group received 8 μL of LB medium. The plates were incubated at 30 °C and 130 rpm for 12 h. After centrifuging 1 mL of the culture for 10 min at 11,255 g, the supernatant was discarded. After dissolving the violacein with 500 μL of DMSO, the mixture was centrifuged once more at 11,255 g for 10 min. In order to measure the absorbance at 585 nm, 200 μL of the upper pigment was added to a 96-well plate. The IC50 was calculated using GraphPad Prism 5 according to the formula (absorbance at 585 nm of the test concentration/the absorbance of the control at 585 nm × 100%).

[4] = mouse, plasma, IV, 5 mg/kg, male CD1 mice
[5] = mouse, plasma, PO, 20 mg/kg, male CD1 mice

## O=C(CCCOc1ccc(I)cc1)NN1CCCOC1=O [Y-31]
[1]; [4]
  AUC: 935 ng·h/mL
  Cmax: 3290 ng/mL
  Tmax: 4.8 min
  half-life: 7.8 min
[1]; mouse, plasma, PO, 20 mg/kg vs IV 5 mg/kg, male CD1 mice, read-out: F (bioavailability)
  bioavailability: 30.4%
[1]; [5]
  AUC: 1100 ng·h/mL
  Cmax: 1280 ng/mL
  Tmax: 15 min
  half-life: 311 min
[1]; single dose 5 mg/kg IV or 20 mg/kg PO, CD1 male mice
  Clinical symptoms during the pharmacokinetic trial: no unusual clinical symptoms were noticed
[2]; 162.5 μM
  Inhibition rate of elastase: 22.7%
[2]; Pseudomonas aeruginosa, PAO1, read-out: Inhibition rate of elastase, 40 μM
  inhibition at 40 µM: 11.3%
[2]; Pseudomonas aeruginosa, PAO1, read-out: Inhibition rate of elastase, 81.5 μM
  inhibition at 81.5 µM: 20%
[2]; Pseudomonas aeruginosa, PAO1, read-out: Inhibition rate of elastase, 162.5 μM
  inhibition at 162.5 µM: 22.7%
RAW 264.7 cells
  Cytotoxicity towards RAW 264.7 cells (cell viability): did not exhibit significant cytotoxicity
P. aeruginosa PAO1
  Inhibition of the growth activity of PAO1: no significant inhibition
[3]; Y-31 162.5 μM + Tob 0.25 μg/mL
  Average survival rate of infected nematodes, Y-31 combined with Tob compared with Y-31 or Tob alone: significantly improved
[3]; after 48 h, agent alone: Y-31 162.5 μM, Tob 0.25 μg/mL
  Improvement of the survival rate of infected nematodes (average): 9.33%
C. violaceum CV026 QS
  IC50: 91.5 ± 3.35 µM
